Assay results as given in patent US7144876B2, “3,5-Disubstituted-[1,2,4]-oxadiazoles and analogs as activators of caspases and inducers of apoptosis and the use thereof” (Cytovia, Inc., priority 2002, dated 2006).
pEC50: −log10 of the molar value.

How the values were obtained:
T-47D [1] = experiment: Caspase cascade activation assay (N-(Ac-DEVD)-N'-ethoxycarbonyl-R110 fluorogenic substrate) in solid tumor cells; format: cell-based, Human; details: T-47D cells, 48 h incubation; for pEC50: Homo sapiens, T47D, sigmoidal dose-response, read-out: Caspase potency EC50; for Caspase activity (Ratio): ratio of net RFU of test compound to that of control samples
Protocol: Human breast cancer cell lines T-47D and ZR-75-1 were grown according to media component mixtures designated by American Type Culture Collection+10% FCS (Invitrogen Corporation), in a 5% CO2-95% humidity incubator at 37° C. T-47D and ZR-75-1 cells were maintained at a cell density between 50 and 80% confluency at a cell density of 0.1 to 0.6×10^6 cells/mL. Cells were harvested at 600×g and resuspended at 0.65×10^6 cells/mL into appropriate media+10% FCS. An aliquot of 45 μl of cells was added to a well of a 96-well microtiter plate containing 2.5 μl of a 10% DMSO in RPMI-1640 media solution containing 0.16 to 100 μM of 3-(3-amino-4-chloro-phenyl)-5-(3-chlorothiophen-2-yl)-[1,2,4]-oxadiazole or other test compound (0.016 to 10 μM final). An aliquot of 22.5 μL of cells was added to a well of a 384-well microtiter plate containing 2.5 μl of a 10% DMSO in RPMI-1640 media solution without test compound as the control sample. The samples were mixed by agitation and then incubated at 37° C. for 48 h in a 5% CO2-95% humidity incubator. After incubation, the samples were removed from the incubator and 25 μL of a solution containing 14 μM of N-(Ac-DEVD)-N′-ethoxycarbonyl-R110 (SEQ ID No.:1) fluorogenic substrate (Maxim, Inc.; WO99/18856), 20% sucrose (Sigma), 20 mM DTT (Sigma), 200 mM NaCl (Sigma), 40 mM Na PIPES buffer pH 7.2 (Sigma), and 500 μg/mL lysolecithin (Calbiochem) was added. The samples were mixed by agitation and incubated at room temperature. Using a fluorescent plate reader (Model SpectraMax Gemini, Molecular Devices), an initial reading (T=0) was made approximately 1–2 min after addition of the substrate solution, employing excitation at 485 nm and emission at 530 nm, to determine the background fluorescence of the control sample. After the 3 h incubation, the samples were read for fluorescence as above (T=3 h).
The Relative Fluorescence Unit values (RFU) were used to calculate the sample readings as follows: RFU(T=3h)−Control RFU(T=0)=Net RFU(T=3h)
The activity of caspase cascade activation was determined by the ratio of the net RFU value for 3-(3-amino-4-chloro-phenyl)-5-(3-chlorothiophen-2-yl)-[1,2,4]-oxadiazole or other test compound to that of control samples. The EC50 (nM) was determined by a sigmoidal dose-response calculation (Prism 2.0, GraphPad Software Inc.).

T-47D [2] = experiment: Inhibition of cell proliferation (GI50), CellTiter 96 AQueous One Solution; format: cell-based; details: Homo sapiens, T47D; T-47D cells, 48 h incubation; dose for 50% inhibition of cell proliferation
Protocol: T-47D and SKBr-3 cells were grown and harvested as in Example 72. An aliquot of 90 μL of cells (2.2×10^4 cells/mL) was added to a well of a 96-well microtiter plate containing 10 μl of a 10% DMSO in RPMI-1640 media solution containing 1 nM to […] of 3-(3-amino-4-chloro-phenyl)-5-(3-chlorothiophen-2-yl)-[1,2,4]-oxadiazole (0.1 nM to 10 μM final). An aliquot of 90 μL of cells was added to a well of a 96-well microtiter plate containing 10 μL of a 10% DMSO in RPMI-1640 media solution without compound as the control sample for maximal cell proliferation (AMax). The samples were mixed by agitation and then incubated at 37° C. for 48 h in a 5% CO2-95% humidity incubator. After incubation, the samples were removed from the incubator and 20 μL of CellTiter 96 AQUEOUS One Solution Cell Proliferation™ reagent (Promega) was added. The samples were mixed by agitation and incubated at 37° C. for 2–4 h in a 5% CO2-95% humidity incubator. Using an absorbance plate reader (Model 1420 Wallac Instruments), an initial reading (T=0) was made approximately 1–2 min after addition of the solution, employing absorbance at 490 nm. This determines the possible background absorbance of the test compounds. No absorbance for 3-(3-amino-4-chloro-phenyl)-5-(3-chlorothiophen-2-yl)-[1,2,4]-oxadiazole was found at 490 nm. After the 2–4 h incubation, the samples were read for absorbance as above (ATest).
Baseline for GI50 (dose for 50% inhibition of cell proliferation) of initial cell numbers were determined by adding an aliquot of 90 μL of cells or 90 μL of media, respectively, to wells of a 96-well microtiter plate containing 10 μL of a 10% DMSO in RPMI-1640 media solution. The samples were mixed by agitation and then incubated at 37° C. for 0.5 h in a 5% CO2-95% humidity incubator. After incubation, the samples were removed from the incubator and 20 μL of CellTiter 96 AQUEOUS One Solution Cell Proliferation™ reagent (Promega) was added. The samples were mixed by agitation and incubated at 37° C. for 2–4 h in a 5% CO2-95% humidity incubator. Absorbance was read as above, (AStart) defining absorbance for initial cell number used as baseline in GI50 determinations.
Calculation: GI50 (dose for 50% inhibition of cell proliferation) is the concentration where [(ATest−AStart)/(AMax−Astart)]=0.5.

MX1 = experiment: as above; format: cell-based; details: Homo sapiens; MX1 cells, 48 h incubation; dose for 50% inhibition of cell proliferation

SMILES	pEC50 (T-47D [1])	Caspase activity (Ratio) (T-47D [1])	GI50 (T-47D [2]) [nM]	GI50 (MX1) [nM]
CC1CCN(c2noc(-c3sccc3Cl)n2)CC1 [Example 22, 5-(3-Chlorothiophen-2-yl)-3-(4-methylpiperidin-1-yl)-[1,2,4]oxadiazole]	5.48	5.4		
Cc1cc(Cl)cnc1-c1noc(-c2occc2Br)n1 [Example 50, 5-(3-Bromofuran-2-yl)-3-(5-chloro-3-methyl-pyridin-2-yl)-[1,2,4]oxadiazole]	6.10	5.9		
Cc1cc(Cl)ccc1-c1noc(-c2sccc2Cl)n1 [Example 43, 3-(4-Chloro-2-methyl-phenyl)-5-(3-chlorothiophen-2-yl)-[1,2,4]oxadiazole]	6.09	7.9		
N#Cc1cc(-c2noc(-c3sccc3Cl)n2)ccc1Cl [Example 7, 5-(3-Chlorothiophen-2-yl)-3-(4-chloro-3-cyano-phenyl)-[1,2,4]-oxadiazole]	5.40	3.4		
Clc1ccc(C=Cc2noc(-c3sccc3Cl)n2)cc1 [Example 13, 3-[2-(4-Chloro-phenyl)-vinyl]-5-(3-chlorothiophen-2-yl)-[1,2,4]-oxadiazole]	5.26	4.4		
Cc1cccnc1-c1noc(-c2occc2Br)n1 [Example 57, 5-(3-Bromofuran-2-yl)-3-(3-methyl-pyridin-2-yl)-[1,2,4]oxadiazole]	6.07	6.4		
Cc1cc(Cl)ccc1-c1noc(-c2occc2Br)n1 [Example 49, 5-(3-Bromofuran-2-yl)-3-(4-chloro-2-methyl-phenyl)-[1,2,4]oxadiazole]	6.00	11.9		
O=[N+]([O-])c1cc(-c2noc(-c3sccc3Cl)n2)ccc1Cl [Example 10, 5-(3-Chlorothiophen-2-yl)-3-(4-chloro-3-nitro-phenyl)-[1,2,4]-oxadiazole]	5.43	9.9		
Fc1cc(-c2noc(-c3sccc3Cl)n2)ccc1Cl [Example 9, 5-(3-Chlorothiophen-2-yl)-3-(4-chloro-3-fluoro-phenyl)-[1,2,4]-oxadiazole]	5.49	9.0	514	899
Nc1cc(-c2noc(-c3sccc3Cl)n2)ccc1Cl [Example 1, 3-(3-Amino-4-chloro-phenyl)-5-(3-chlorothiophen-2-yl)-[1,2,4]-oxadiazole]	5.70	11.9	894	7000
CN(C)c1cc(-c2noc(-c3sccc3Cl)n2)ccc1Cl [Example 2, 5-(3-Chlorothiophen-2-yl)-3-(3-dimethylamino-4-chloro-phenyl)-[1,2,4]-oxadiazole]	5.82	15.1	360	5000
CN(C)c1cc(-c2noc(-c3occc3Br)n2)ccc1Cl [Example 4, 5-(3-Bromofuran-2-yl)-3-(3-dimethylamino-4-chloro-phenyl)-[1,2,4]-oxadiazole]	5.73	11.9	415	210
Clc1ccsc1-c1nc(N2CCCCC2)no1 [Example 18, 5-(3-Chlorothiophen-2-yl)-3-(1-piperidinyl)-[1,2,4]-oxadiazole]	5.30	2.8		
Cc1cccnc1-c1noc(-c2sccc2Cl)n1 [Example 47, 5-(3-Chlorothiophen-2-yl)-3-(3-methyl-pyridin-2-yl)-[1,2,4]oxadiazole]	5.61	4.5		
